From ChEMBL document CHEMBL5331145, “Discovery of a Novel Bifunctional Steroid Analog, YXG-158, as an Androgen Receptor Degrader and CYP17A1 Inhibitor for the Treatment of Enzalutamide-Resistant Prostate Cancer” (J Med Chem, 2023) come the findings set out here.

A short description of data set [1]: Half life in Sprague-Dawley rat at 10 mg/kg, po measured upto 24 hrs by LC-MS/MS analysis. The data set is classed as ADME, organism-based. Conditions: in vivo.
Data set [2] is described as follows: Half life in Sprague-Dawley rat at 5 mg/kg, iv measured upto 24 hrs by LC-MS/MS analysis. The data set is classed as ADME, organism-based. Conditions: in vivo.
Data set [3] in a line: Half life in dog at 2 mg/kg, iv measured upto 24 hrs by LC-MS/MS analysis. In kind it is ADME, organism-based, Canis lupus familiaris. Conditions: in vivo.
Data set [4] is described as follows: Tmax in Sprague-Dawley rat at 10 mg/kg, po measured upto 24 hrs by LC-MS/MS analysis. Conditions: in vivo. In kind it is ADME, organism-based.
Data set [5] can be described thus: Cmax in Sprague-Dawley rat at 10 mg/kg, po measured upto 24 hrs by LC-MS/MS analysis. More on the design: dose 10 mg/kg, time < 24 hrs, route po. Conditions: in vivo. In kind it is ADME, organism-based.
Data set [6] is described as follows: Cmax in Sprague-Dawley rat at 5 mg/kg, iv measured upto 24 hrs by LC-MS/MS analysis. The data set is classed as ADME, organism-based. More on the design: dose 5 mg/kg, time < 24 hrs, route iv. Conditions: in vivo.
The nature of data set [7]: Cmax in dog at 2 mg/kg, iv measured upto 24 hrs by LC-MS/MS analysis. The data set is classed as ADME, organism-based, Canis lupus familiaris. More on the design: time < 24 hrs, dose 2 mg/kg, route iv. Conditions: in vivo.
Data set [8] is described as follows: AUC(0 to t) in Sprague-Dawley rat at 10 mg/kg, po measured upto 24 hrs by LC-MS/MS analysis. In kind it is ADME, organism-based. Conditions: in vivo.
Data set [9] is described as follows: AUC(0 to t) in Sprague-Dawley rat at 5 mg/kg, iv measured upto 24 hrs by LC-MS/MS analysis. The data set is classed as ADME, organism-based. Conditions: in vivo.
Data set [10] in a line: AUC(0 to t) in dog at 2 mg/kg, iv measured upto 24 hrs by LC-MS/MS analysis. Conditions: in vivo. The data set is classed as ADME, organism-based, Canis lupus familiaris.
Data set [11] can be described thus: Clearance in Sprague-Dawley rat at 5 mg/kg, iv measured upto 24 hrs by LC-MS/MS analysis. Conditions: in vivo. The data set is classed as ADME, organism-based.
The nature of data set [12]: Clearance in dog at 2 mg/kg, iv measured upto 24 hrs by LC-MS/MS analysis. The data set is classed as ADME, organism-based, Canis lupus familiaris. Conditions: in vivo.
The nature of data set [13]: Volume of distribution at steady state in Sprague-Dawley rat at 5 mg/kg, iv measured upto 24 hrs by LC-MS/MS analysis. The data set is classed as ADME, organism-based. Conditions: in vivo, read-out: Vdss.
Data set [14] can be described thus: Volume of distribution at steady state in dog at 2 mg/kg, iv measured upto 24 hrs by LC-MS/MS analysis. The data set is classed as ADME, organism-based, Canis lupus familiaris. Conditions: in vivo, read-out: Vdss.
Data set [15] in a line: Oral bioavailability in Sprague-Dawley rat at 10 mg/kg measured upto 24 hrs by LC-MS/MS analysis. In kind it is ADME, organism-based. Conditions: in vivo.
Data set [16] in a line: Cmax in dog at 10 mg/kg, po measured upto 24 hrs by LC-MS/MS analysis. In kind it is ADME, organism-based, Canis lupus familiaris. Conditions: in vivo. On the set-up: dose 10 mg/kg, time < 24 hrs, route po.
Data set [17] in a line: Half life in dog at 10 mg/kg, po measured upto 24 hrs by LC-MS/MS analysis. In kind it is ADME, organism-based, Canis lupus familiaris. Conditions: in vivo.
Data set [18] can be described thus: Tmax in dog at 10 mg/kg, po measured upto 24 hrs by LC-MS/MS analysis. The data set is classed as ADME, organism-based, Canis lupus familiaris. Conditions: in vivo.
The nature of data set [19]: AUC(0 to t) in dog at 10 mg/kg, po measured upto 24 hrs by LC-MS/MS analysis. In kind it is ADME, organism-based, Canis lupus familiaris. Conditions: in vivo.
A short description of data set [20]: Oral bioavailability in dog at 10 mg/kg measured upto 24 hrs by LC-MS/MS analysis. In kind it is ADME, organism-based, Canis lupus familiaris. Conditions: in vivo.

The term half-life denotes how long it takes for the measured level to halve. Low values mean rapid decline, high ones slow decline. Broadly, the Tmax is the time from dosing to the highest level. What is called Cmax is the highest concentration seen after dosing. As a reminder, the clearance is the volume of plasma or blood freed of the substance per unit of time. The low end stands for inefficient removal, the high end for efficient removal. Usually bioavailability stands for the share of a dose that reaches the circulation, judged against a reference dose that is usually intravenous. The low end stands for little systemic uptake, the high end for much systemic uptake. As to `Cc1cn(C2=CCC3C4CC=C5C[C@@H](NC(=O)c6ccc(F)cc6)CC[C@]5(C)C4CC[C@]23C)cn1.Cl` (stereo not given in full), the half-life was 6.82 h in data set [1], 6.39 h in [2], 5.15 h in data set [3] and 12.4 h in data set [17]. In addition, the Tmax came out at 0.83 h in [4] and 6 h in [18]. Moreover, the Cmax came out at 8800 ng/mL in data set [5], 14300 ng/mL in data set [6], 1860 ng/mL in data set [7] and 907 ng/mL in [16]. For the same compound, the AUCt in data set [8] was 84338 h/ng/mL; in data set [9] it was 45408 h/ng/mL; in data set [10] it was 4737 h/ng/mL; in data set [19], 10460 h/ng/mL. Besides, the clearance was found to be 1.82 mL/min/kg in data set [11] and 6.86 mL/min/kg in data set [12]. The Vd is 0.77 L/kg in data set [13] and 1.92 L/kg in [14]. For the same compound, the figures for the bioavailability in [15] and in data set [20] were 93% and 44%, respectively.
